Values quoted from earlier work as cited in PMC6597953, “Taking Advantage of the Selectivity of Histone Deacetylases and Phosphodiesterase Inhibitors to Design Better Therapeutic Strategies to Treat Alzheimer’s Disease” (Frontiers in Aging Neuroscience, 2019).
pIC50: −log10 of the molar value.

How the values were obtained:
Format in all cases: biochemical
HDAC6 = biological target: T1, HDAC6 (Homo sapiens, UniProt Q9UBN7); assay: IC50 of HDAC6 inhibition (assay not described); supported by alpha-tubulin acetylation western blot in SH-SY5Y cells
T1 sequence (Q9UBN7 1-1215): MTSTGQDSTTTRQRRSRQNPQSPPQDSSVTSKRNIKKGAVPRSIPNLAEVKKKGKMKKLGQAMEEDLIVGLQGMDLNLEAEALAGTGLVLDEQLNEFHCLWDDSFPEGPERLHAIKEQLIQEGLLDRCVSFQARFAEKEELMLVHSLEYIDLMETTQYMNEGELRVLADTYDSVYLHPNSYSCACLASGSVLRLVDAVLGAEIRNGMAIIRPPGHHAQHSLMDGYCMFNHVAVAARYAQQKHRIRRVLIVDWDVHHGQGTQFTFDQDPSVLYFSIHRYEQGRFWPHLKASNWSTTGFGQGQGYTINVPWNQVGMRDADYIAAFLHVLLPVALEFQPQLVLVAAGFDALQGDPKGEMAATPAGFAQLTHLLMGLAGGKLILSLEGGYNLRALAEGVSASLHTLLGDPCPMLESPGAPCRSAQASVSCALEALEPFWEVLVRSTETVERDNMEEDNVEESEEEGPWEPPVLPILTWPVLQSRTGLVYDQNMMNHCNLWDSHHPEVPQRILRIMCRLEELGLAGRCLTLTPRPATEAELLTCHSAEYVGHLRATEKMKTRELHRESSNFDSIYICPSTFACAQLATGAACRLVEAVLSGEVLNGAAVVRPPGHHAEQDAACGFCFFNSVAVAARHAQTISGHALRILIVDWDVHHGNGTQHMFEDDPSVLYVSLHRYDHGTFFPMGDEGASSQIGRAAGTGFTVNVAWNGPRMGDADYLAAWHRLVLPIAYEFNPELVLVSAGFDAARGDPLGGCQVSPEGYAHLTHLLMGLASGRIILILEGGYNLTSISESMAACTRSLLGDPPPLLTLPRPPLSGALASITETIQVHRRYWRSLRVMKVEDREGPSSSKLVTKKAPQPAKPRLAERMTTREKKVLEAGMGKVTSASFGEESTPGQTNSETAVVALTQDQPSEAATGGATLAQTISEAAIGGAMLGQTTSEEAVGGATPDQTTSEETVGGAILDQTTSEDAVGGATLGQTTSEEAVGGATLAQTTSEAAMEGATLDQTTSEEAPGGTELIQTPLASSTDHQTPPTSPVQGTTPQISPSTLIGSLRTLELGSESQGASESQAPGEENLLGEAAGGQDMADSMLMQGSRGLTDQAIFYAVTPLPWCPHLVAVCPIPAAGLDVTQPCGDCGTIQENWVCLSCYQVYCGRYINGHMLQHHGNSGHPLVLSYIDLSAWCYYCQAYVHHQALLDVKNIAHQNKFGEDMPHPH

HDAC1 = HDAC1 (Homo sapiens, UniProt Q13547); assay: IC50 of HDAC1 inhibition (assay not described); AcH3K9 western blot in SH-SY5Y cells at […]
HDAC1, sequence (Q13547 whole entry): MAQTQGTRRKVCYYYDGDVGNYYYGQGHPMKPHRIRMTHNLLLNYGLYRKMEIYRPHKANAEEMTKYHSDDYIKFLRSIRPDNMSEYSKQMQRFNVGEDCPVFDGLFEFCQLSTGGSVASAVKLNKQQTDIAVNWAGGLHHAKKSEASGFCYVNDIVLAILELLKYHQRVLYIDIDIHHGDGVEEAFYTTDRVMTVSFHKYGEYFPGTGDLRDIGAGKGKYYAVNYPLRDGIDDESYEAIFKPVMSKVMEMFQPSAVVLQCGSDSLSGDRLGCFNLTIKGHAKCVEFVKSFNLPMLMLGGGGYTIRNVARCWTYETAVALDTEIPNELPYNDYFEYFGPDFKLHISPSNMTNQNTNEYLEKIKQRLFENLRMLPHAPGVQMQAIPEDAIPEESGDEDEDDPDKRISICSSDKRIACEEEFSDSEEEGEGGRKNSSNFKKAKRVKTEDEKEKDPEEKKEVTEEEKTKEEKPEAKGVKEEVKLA

HDAC2 = HDAC2 (Homo sapiens, UniProt Q92769); assay: IC50 of HDAC2 inhibition (assay not described)
HDAC2, sequence (Q92769 whole entry): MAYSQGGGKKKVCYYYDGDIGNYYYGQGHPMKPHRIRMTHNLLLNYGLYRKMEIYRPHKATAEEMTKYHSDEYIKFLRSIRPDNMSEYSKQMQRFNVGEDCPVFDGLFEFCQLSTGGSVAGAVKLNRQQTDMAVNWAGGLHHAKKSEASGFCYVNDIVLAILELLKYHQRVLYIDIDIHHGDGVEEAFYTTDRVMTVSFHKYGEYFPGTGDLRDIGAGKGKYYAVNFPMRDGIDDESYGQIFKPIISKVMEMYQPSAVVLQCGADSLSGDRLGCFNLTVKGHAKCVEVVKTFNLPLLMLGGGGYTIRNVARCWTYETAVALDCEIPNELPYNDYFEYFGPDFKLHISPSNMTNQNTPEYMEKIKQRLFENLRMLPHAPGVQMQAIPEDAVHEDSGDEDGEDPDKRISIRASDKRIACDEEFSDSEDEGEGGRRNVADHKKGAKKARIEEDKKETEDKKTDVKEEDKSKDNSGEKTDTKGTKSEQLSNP

PDE9 = biological target: T2, PDE9 (Homo sapiens, UniProt O76083); assay: IC50 of PDE9 inhibition (assay not described); supported by pCREB western blot in SH-SY5Y cells
T2 construct: gene PDE9A
T2 sequence (O76083 whole entry): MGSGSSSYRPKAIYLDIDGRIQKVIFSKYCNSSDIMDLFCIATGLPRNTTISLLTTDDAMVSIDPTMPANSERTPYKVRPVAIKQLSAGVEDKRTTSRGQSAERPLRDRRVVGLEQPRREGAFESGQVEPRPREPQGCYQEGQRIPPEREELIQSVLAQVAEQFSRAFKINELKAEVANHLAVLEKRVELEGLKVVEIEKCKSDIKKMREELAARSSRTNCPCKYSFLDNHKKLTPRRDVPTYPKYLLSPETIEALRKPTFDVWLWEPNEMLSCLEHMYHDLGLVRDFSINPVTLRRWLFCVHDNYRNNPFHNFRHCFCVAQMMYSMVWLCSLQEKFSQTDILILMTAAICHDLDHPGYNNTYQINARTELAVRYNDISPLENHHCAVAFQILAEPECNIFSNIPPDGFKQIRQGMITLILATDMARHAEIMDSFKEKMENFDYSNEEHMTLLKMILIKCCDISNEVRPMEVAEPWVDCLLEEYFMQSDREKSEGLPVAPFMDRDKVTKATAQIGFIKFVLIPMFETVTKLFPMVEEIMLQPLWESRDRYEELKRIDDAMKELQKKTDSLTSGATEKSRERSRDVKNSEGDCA

Question: With CM-695 as the substance, how does the pIC50 (HDAC6) read?
Answer: 7.40

Question: And the pIC50 (HDAC1)?
Answer: 6.23

Question: What about the pIC50 (HDAC2) of the same substance?
Answer: 5.45

Question: What about the pIC50 (PDE9) of the same substance?
Answer: 6.97
